In publication PMC5248655 (ACS chemical neuroscience, 2015):
Structures can show the parent of a compound that is named as a salt. Where two headings read alike, the source gives them in different places.

Experiments:
[1] = test system: P-gp; experiment: Western blot of P-gp expression in SCHs; format: cell-based, rat; conditions: 48 h treatment, vs control cells, n = 4
[2] = test system: LRP1; experiment: Western blot of LRP1 expression in SCHs; format: cell-based, rat; conditions: 48 h treatment; for increase in LRP1 expression: n = 4
[3] = test system: C57BL/6 wild-type mice; conditions: compared to control mice; cited from earlier work
[4] = test system: sandwich-cultured primary rat hepatocytes (SCHs); conditions: induction of LRP1 and P-gp; cited from earlier work
[5] = test system: P-gp; experiment: Western blot of hepatic P-gp expression in treated rats; format: in vivo, rat; conditions: 26 day treatment, n = 5
[6] = test system: P-gp; experiment: Western blot of P-gp expression in RBE4 cells; format: cell-based, rat; conditions: 5 µM, 48 h, normalized, vs control, n = 4
[7] = test system: Sprague–Dawley male rats; conditions: n = 5; for hepatic uptake (extravascular extraction, E) of ^125I-Aβ40: absolute value
[8] = test system: P-gp; conditions: 26 day treatment, Western blot, n = 5
[9] = test system: Aβ42; conditions: rat, in vivo
[10] = test system: Sprague–Dawley male rats; experiment: TCA precipitation assay of Aβ degradation in treated rats; format: in vivo, rat; conditions: rats treated 26 days, data not shown
[11] = test system: LRP1; experiment: Western blot of LRP1 expression in RBE4 cells; format: cell-based, rat; conditions: 5 µM, 48 h, normalized, vs control, n = 4
[12] = test system: LRP1; experiment: Western blot of hepatic LRP1 expression in treated rats; format: in vivo, rat; conditions: 26 day treatment, n = 5
[13] = test system: Aβ40; conditions: rat, in vivo
[14] = test system: LRP1; conditions: 26 day treatment, Western blot, n = 5
[15] = test system: Sprague–Dawley male rats; experiment: Brain efflux index; conditions: 60 min after intracerebral microinjection

COc1ccc2c3c1O[C@H]1C[C@@H](O)C=C[C@@]31CCN(C)C2 [galantamine, Galantamine hydrochloride]
increase in P-gp expression [1]: 1.3 fold | increase in LRP1 expression ([2]; vs control cells): 1.2 fold

CC12CC3CC(C)(C1)CC(N)(C3)C2 [memantine]
effect on LRP1 expression (in words) [2]: no effect

C/C=C(/C=O)[C@@H](CC=O)CC(=O)OCCc1ccc(O)cc1 [oleocanthal]
increase in brain efflux of exogenously introduced Aβ40 [3]: 29%

CO[C@H]1/C=C/O[C@@]2(C)Oc3c(C)c(O)c4c(O)c(c(/C=N/N5CCN(C)CC5)c(O)c4c3C2=O)NC(=O)/C(C)=C\C=C\[C@H](C)[C@H](O)[C@@H](C)[C@@H](O)[C@@H](C)[C@H](OC(C)=O)[C@@H]1C [rifampicin]
effect on biliary clearance of ^125I-Aβ (in words) [4]: significantly increased

CCN(C)C(=O)Oc1cccc([C@H](C)N(C)C)c1 [rivastigmine, rivastigmine L-tartrate]
increase in liver P-gp expression ([5]; aged rats): 81% | increase in liver P-gp expression ([5]; young rats): 47% | increase in P-gp expression [6]: approximately 1.7 fold | hepatic uptake (extravascular extraction, E) of ^125I-Aβ40 ([7]; aged rats, 26 day treatment, mean ± SEM): 64.0 ± 4.9% | increase in hepatic uptake of ^125I-Aβ40 ([7]; aged rats, 26 day treatment, vs vehicle-treated rats of the same age): 119% | hepatic uptake (extravascular extraction, E) of ^125I-Aβ40 ([7]; young rats, 26 day treatment, mean ± SEM): 64 ± 3.7% | increase in brain P-gp protein expression ([8]; aged rats): 20% | increase in brain P-gp protein expression ([8]; young rats): 36% | reduction of total brain Aβ42 level [9]: approximately 52% | reduction trend in brain Aβ42 levels (in words) [9]: not statistically significant | total Aβ42 level in brain [9]: 466 ± 67 pmol/g brain tissue | increase in P-gp expression [1]: 1.3 fold | effect on Aβ degradation [10]: no effect | increase in LRP1 expression [11]: approximately 1.7 fold | increase in liver LRP1 expression ([12]; aged rats): 88% | increase in liver LRP1 expression ([12]; young rats): 41% | increase in LRP1 expression ([2]; vs control cells): 1.7 fold | reduction of total brain Aβ40 level [13]: approximately 52% | total Aβ40 level in brain [13]: 1713 ± 260 pmol/g brain tissue | increase in brain LRP1 protein expression ([14]; aged rats): 56% | increase in brain LRP1 protein expression ([14]; young rats): 42%

Nc1c2c(nc3ccccc13)CCCC2 [tacrine, Tacrine hydrochloride]
down-regulation of LRP1 expression ([2]; vs control cells): 20%

^125I-Aβ40
reduction of extravascular extraction (E) in aged compared to young rats ([7]; aged (24 months) vs young (4 months) rats): 44% | extravascular extraction or hepatic uptake of ^125I-Aβ40 ([7]; vehicle-treated young rats, single pass into the portal vein, 18 s, mean ± SEM): 51.9 ± 2.4% | ^125I-Aβ40 BEI% ([15]; vehicle-treated aged rats (24 months)): 47% | ^125I-Aβ40 BEI% ([15]; vehicle-treated young rats (4 months)): 59%
